Consider 31 compounds from patent publication US11919883B2, “Metalloenzyme inhibitor compounds” (Ji Xing Pharmaceuticals Hong Kong Limited, priority 2016, dated 2024).

Assay [1] deals with T1, recombinant human CYP11B2 (Homo sapiens, UniProt P19099).
T1 construct: made in house; host or cells: V79-4 cells (enzyme enriched microsomal fraction of cell lysates)
T1 sequence (P19099 25-503): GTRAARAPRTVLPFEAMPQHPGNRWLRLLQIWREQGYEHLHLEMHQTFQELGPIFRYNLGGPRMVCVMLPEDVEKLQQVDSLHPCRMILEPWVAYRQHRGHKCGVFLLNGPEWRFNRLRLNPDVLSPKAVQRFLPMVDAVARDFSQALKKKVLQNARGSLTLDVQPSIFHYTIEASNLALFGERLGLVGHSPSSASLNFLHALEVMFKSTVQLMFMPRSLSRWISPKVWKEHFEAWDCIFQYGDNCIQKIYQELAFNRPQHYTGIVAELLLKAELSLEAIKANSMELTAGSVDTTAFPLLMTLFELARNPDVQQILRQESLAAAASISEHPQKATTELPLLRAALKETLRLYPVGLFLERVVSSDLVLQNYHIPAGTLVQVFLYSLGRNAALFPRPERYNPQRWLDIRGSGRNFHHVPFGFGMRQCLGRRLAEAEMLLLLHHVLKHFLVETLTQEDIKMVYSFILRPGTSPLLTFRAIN
The assay is described as follows: CYP11B2 enzyme assay, enzyme enriched microsomes from V79-4 cells, aldosterone by LC-MS. Conditions: IC50 ranges; run at Km of 11-deoxycorticosterone; read-out: hCYP11B2 IC50. Type of assay: biochemical.
Procedure: (§1) An enzyme enriched microsomal fraction was prepared from cellular lysates and subsequently used as the enzyme source for determining inhibitor IC50s. […] Enzyme assays for inhibitor screening employed CYP11B2 and CYP11B1 enzyme enriched microsomes and were run at the Km of the respective substrates. Products of the enzyme reactions, aldosterone for CYP11B2 or cortisol for CYP11B1, were measured by LC-MS. Assays were run under conditions of less than 20% substrate turnover. Inhibitor IC50s were generated by determining the product formation in the absence or presence of inhibitor at various concentrations. In the absence of the test compound, the product formed (Pt) in each data set was defined as 100% activity. In the absence of enzyme, the product formed (Pb) in each data set was defined as 0% activity. The percent activity in the presence of each inhibitor was calculated according to the following equation: % activity=(P−Pb)/(Pt−Pb), where P=the product formed in the presence of the inhibitor.

The target in assay [2] is T2, recombinant human CYP11B1 (Homo sapiens, UniProt P15538).
T2 construct: made in house; host or cells: V79-4 cells (enzyme enriched microsomal fraction of cell lysates)
T2 sequence (P15538 25-503): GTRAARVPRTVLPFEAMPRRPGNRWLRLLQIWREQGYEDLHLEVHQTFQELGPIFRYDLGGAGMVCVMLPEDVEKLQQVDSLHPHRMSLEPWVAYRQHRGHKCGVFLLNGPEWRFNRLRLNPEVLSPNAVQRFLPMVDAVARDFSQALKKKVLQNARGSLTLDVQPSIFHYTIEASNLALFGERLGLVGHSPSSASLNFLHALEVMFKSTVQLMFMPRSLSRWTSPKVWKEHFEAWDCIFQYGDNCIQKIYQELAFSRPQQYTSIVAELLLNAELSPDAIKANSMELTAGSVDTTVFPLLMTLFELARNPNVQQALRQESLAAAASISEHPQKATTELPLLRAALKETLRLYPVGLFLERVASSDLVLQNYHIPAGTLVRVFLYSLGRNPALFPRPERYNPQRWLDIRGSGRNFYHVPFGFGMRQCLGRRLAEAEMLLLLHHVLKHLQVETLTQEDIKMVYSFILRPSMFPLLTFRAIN
The assay is described as follows: CYP11B1 enzyme assay, enzyme enriched microsomes from V79-4 cells, cortisol by LC-MS. Conditions: IC50 ranges; run at Km of 11-deoxycortisol; read-out: hCYP11B1 IC50. Type of assay: biochemical.
Procedure: as §1

On to `CC(C)(O)c1ncncc1-c1nc2ccc(C#N)cc2n1C1CC1` [Example 73, 1-Cyclopropyl-2-(4-(2-hydroxypropan-2-yl)pyrimidin-5-yl)-1H-benzo[d]imidazole-6-carbonitrile], for which the IC50 in assay [1] is 100 to 1000 nM; in assay [2] it was more than 10000 nM.
On the same counts, the results for `Fc1ccc2nc(-c3cncnc3)n(C3CC3)c2c1F` [Example 2, 1-Cyclopropyl-6,7-difluoro-2-(pyrimidin-5-yl)-1H-benzo[d]imidazole] are 100 to 1000 nM and 1000 to 10000 nM.
For `Fc1cc2nc(-c3cncnc3)n(C3CC3)c2cc1F` [Example 7, 1-Cyclopropyl-5,6-difluoro-2-(pyrimidin-5-yl)-1H-benzo[d]imidazole], in that order: 1 to 100 nM and 1000 to 10000 nM.
For the compound `Fc1ccc2nc(-c3cnc(Cl)nc3Cl)n(C3CC3)c2c1` [Example 35, 1-Cyclopropyl-2-(2,4-dichloropyrimidin-5-yl)-6-fluoro-1H-benzo[d]imidazole], the results for the IC50 in assay [1] and in assay [2] were 1000 to 10000 nM and more than 10000 nM, respectively.
With `CC(=O)NCCc1ncncc1-c1nc2cc(F)c(F)cc2n1C1CC1` [Example 59, N-(2-(5-(1-Cyclopropyl-5,6-difluoro-1H-benzo[d]imidazol-2-yl)pyrimidin-4-yl)ethyl)acetamide], the 50% inhibitory concentration (IC50) in assay [1] is 1000 to 10000 nM; in assay [2], more than 10000 nM.
On to `CNc1ncncc1-c1nc2ccc(C#N)cc2n1C1CC1` [Example 39, 1-Cyclopropyl-2-(4-(methylamino)pyrimidin-5-yl)-1H-benzo[d]imidazole-6-carbonitrile], for which the results for the IC50 in assay [1] and in assay [2] were 1 to 100 nM and 100 to 1000 nM, respectively.
For `Fc1cc2nc(-c3cncnc3NCCC(F)(F)F)n(C3CC3)c2cc1F` [Example 37, 5-(1-Cyclopropyl-5,6-difluoro-1H-benzo[d]imidazol-2-yl)-N-(3,3,3-trifluoropropyl)pyrimidin-4-amine], in that order: 1 to 100 nM and 100 to 1000 nM.
On the same counts, the results for `COc1ncncc1-c1nc2ccc(F)cc2n1C1CC1` [Example 6, 1-Cyclopropyl-6-fluoro-2-(4-methoxypyrimidin-5-yl)-1H-benzo[d]imidazole] are 100 to 1000 nM and more than 10000 nM.
On the same counts, the results for `CN(C)c1ncncc1-c1nc2cc(F)c(F)cc2n1C1CC1` [Example 32, 5-(1-Cyclopropyl-5,6-difluoro-1H-benzo[d]imidazol-2-yl)-N,N-dimethylpyrimidin-4-amine] are 1 to 100 nM and 1000 to 10000 nM.
Consider `CCc1ncncc1-c1nc2ccc(F)c(F)c2n1C1CC1` [Example 17, 1-Cyclopropyl-2-(4-ethylpyrimidin-5-yl)-6,7-difluoro-1H-benzo[d]imidazole], for which the figures for the half-inhibitory concentration (IC50) in assay [1] and in assay [2] were 1 to 100 nM and 1000 to 10000 nM, respectively.
On the same counts, the results for `CCCc1ncncc1-c1nc2ccc(C#N)cc2n1C1CC1` [Example 40, 1-Cyclopropyl-2-(4-propylpyrimidin-5-yl)-1H-benzo[d]imidazole-6-carbonitrile] are 1 to 100 nM and 100 to 1000 nM.
On the same counts, the results for `Cc1ncncc1-c1nc2ccc(C#N)nc2n1C1CC1` [Example 52, 3-Cyclopropyl-2-(4-methylpyrimidin-5-yl)-3H-imidazo[4,5-b]pyridine-5-carbonitrile] are 1 to 100 nM and 1000 to 10000 nM.
On the same counts, the results for `Cc1ncnc(C)c1-c1nc2ccc(F)cc2n1C1CC1` [Example 29, 1-Cyclopropyl-2-(4,6-dimethylpyrimidin-5-yl)-6-fluoro-1H-benzo[d]imidazole] are more than 10000 nM and more than 10000 nM.
As to `c1ncc(-c2nc3c(n2C2CC2)CCCC3)cn1` [Example 57, 1-Cyclopropyl-2-(pyrimidin-5-yl)-4,5,67-tetrahydro-1H-benzo[d]imidazole], the IC50 is 1000 to 10000 nM in assay [1] and more than 10000 nM in assay [2].
On the same counts, the results for `N#Cc1ccc2nc(-c3cncnc3)n(C3CC3)c2c1` [Example 3, 1-Cyclopropyl-2-(pyrimidin-5-yl)-1H-benzo[d]imidazole-6-carbonitrile] are 1 to 100 nM and 1000 to 10000 nM.
For `CCc1ncncc1-c1nc2ccc(F)cc2n1CC` [Example 16, 1-Ethyl-2-(4-ethylpyrimidin-5-yl)-6-fluoro-1H-benzo[d]imidazole], in that order: 100 to 1000 nM and 1000 to 10000 nM.
On to `FC(F)c1ncncc1-c1nc2ccc(Cl)nc2n1C1CC1` [Example 62, 5-Chloro-3-cyclopropyl-2-(4-(difluoromethyl)pyrimidin-5-yl)-3H-imidazo[4,5-b]pyridine], for which the IC50 in assay [1] was 100 to 1000 nM; in assay [2], 1000 to 10000 nM.
In the case of `CC(C)c1ncncc1-c1nc2cc(F)c(F)cc2n1C1CC1` [Example 22, 1-Cyclopropyl-5,6-difluoro-2-(4-isopropylpyrimidin-5-yl)-1H-benzo[d]imidazole], the 50% inhibitory concentration (IC50) in assay [1] is 1 to 100 nM; in assay [2], 100 to 1000 nM.
In the case of `CCn1c(-c2cncnc2C(F)(F)F)nc2ccc(Cl)nc21` [Example 68, 5-Chloro-3-ethyl-2-(4-(trifluoromethyl)pyrimidin-5-yl)-3H-imidazo[4,5-b]pyridine], the IC50 is 100 to 1000 nM in assay [1] and more than 10000 nM in assay [2].
On the same counts, the results for `FC(F)(F)Oc1ccc2nc(-c3cncnc3)n(C3CC3)c2c1` [Example 42, 1-Cyclopropyl-2-(pyrimidin-5-yl)-6-(trifluoromethoxy)-1H-benzo[d]imidazole] are 100 to 1000 nM and 1000 to 10000 nM.
On the same counts, the results for `Clc1ccc2nc(-c3cncnc3)n(C3CC3)c2c1` [Example 23, 6-Chloro-1-cyclopropyl-2-(pyrimidin-5-yl)-1H-benzo[d]imidazole] are 1 to 100 nM and 1000 to 10000 nM.
With `N#Cc1ccc2nc(-c3cncnc3)n(CC(F)(F)F)c2c1` [Example 43, 2-(Pyrimidin-5-yl)-1-(2,2,2-trifluoroethyl)-1H-benzo[d]imidazole-6-carbonitrile], the concentration for half-maximal inhibition (IC50) in assay [1] is 1000 to 10000 nM; in assay [2] it was more than 10000 nM.
In the case of `Cc1ncncc1-c1nc2ccc(C#N)cc2n1C1CC1` [Example 21, 1-Cyclopropyl-2-(4-methylpyrimidin-5-yl)-1H-benzo[d]imidazole-6-carbonitrile], the results for the half-maximal inhibitory concentration (IC50) in assay [1] and in assay [2] were 1 to 100 nM and 1000 to 10000 nM, respectively.
Take `Fc1ccc2nc(-c3cncnc3Cl)n(C3CC3)c2c1` [Example 9, 2-(4-Chloropyrimidin-5-yl)-1-cyclopropyl-6-fluoro-1H-benzo[d]imidazole]: the IC50 in assay [1] was in the range of 1 to 100 nM; in assay [2] it was 1000 to 10000 nM.
In the case of `CCn1c(-c2cncnc2C(F)(F)F)nc2ccc(C#N)cc21` [Example 53, 2-(4-(trifluoromethyl)pyrimidin-5-yl)-1-ethyl-1H-benzo[d]imidazole-6-carbonitrile], the half-inhibitory concentration (IC50) was in the range of 1 to 100 nM in assay [1] and 1000 to 10000 nM in assay [2].
Consider `Fc1cc2nc(-c3cncnc3NCC(F)(F)F)n(C3CC3)c2cc1F` [Example 36, 5-(1-Cyclopropyl-5,6-difluoro-1H-benzo[d]imidazol-2-yl)-N-(2,2,2-trifluoroethyl)pyrimidin-4-amine], for which the concentration for half-maximal inhibition (IC50) in assay [1] was 1 to 100 nM; in assay [2], 100 to 1000 nM.
As to `N#Cc1ccc2nc(-c3cncnc3C(F)F)n(C3CC3)c2c1` [Example 54, 1-Cyclopropyl-2-(4-(difluoromethyl)pyrimidin-5-yl)-1H-benzo[d]imidazole-6-carbonitrile], the IC50 was 1 to 100 nM in assay [1] and 1000 to 10000 nM in assay [2].
On the same counts, the results for `COCCNc1ncncc1-c1nc2cc(F)c(F)cc2n1C1CC1` [Example 33, 5-(1-Cyclopropyl-5,6-difluoro-1H-benzo[d]imidazol-2-yl)-N-(2-methoxyethyl)pyrimidin-4-amine] are 1 to 100 nM and 1000 to 10000 nM.
Turning to `CCc1ncncc1-c1nc2ccc(Cl)cc2n1C1CC1` [Example 11, 6-Chloro-1-cyclopropyl-2-(4-ethylpyrimidin-5-yl)-1H-benzo[d]imidazole], the figures for the IC50 in assay [1] and in assay [2] were 1 to 100 nM and 1000 to 10000 nM, respectively.
On the same counts, the results for `O=C(O)c1ccc2nc(-c3cncnc3C(F)(F)F)n(C3CC3)c2c1` [Example 70, 1-Cyclopropyl-2-(4-(trifluoromethyl)pyrimidin-5-yl)-1H-benzo[d]imidazole-6-carboxylic acid] are more than 10000 nM and more than 10000 nM.
For the compound `CC(C)(C)Nc1ncncc1-c1nc2cc(F)c(F)cc2n1C1CC1` [Example 34, N-(tert-Butyl)-5-(1-cyclopropyl-5,6-difluoro-1H-benz[d]imidazol-2-yl)pyrimidin-4-amine], the half-inhibitory concentration (IC50) in assay [1] lay in the range of 1 to 100 nM; in assay [2] it was 100 to 1000 nM.
